The target of this assay is hTRPA1 (Homo sapiens, UniProt O75762). The assay is described as follows: Dose response calcium flux (FLIPR) assay, ChanTest hTRPA1-CHO stably transfected cell line, cinnamaldehyde agonist. The class given is cell-based. The settings on record: CHO-K1 Tet-On hTRPA1 cells, 100 uM cinnamaldehyde agonist, 30 min preincubation. Here is the method: Dose Response Assay:ChanTest hTRPA1-CHO Stably Transfected Cell Line
CHO-K1 Tet-On_HOMSA_TRPA1_Clone_20
Growth Media for CHO-K1 Tet-On_HOMSA_TRPA1_Clone_20 • Ham's F-12 with 10% tetracycline-free FBS • 1× penicillin-streptomycin • 1× glutamax • 0.01 mg/ml Blasticidin • 0.40 mg/ml Zeocin • The cell line doubling rate was ˜15 h. […] Experiments were run at 24 h post induction.
Plating Conditions CHOK1/TRPA1 Cells: • Harvested cells with 0.025% trypsin/EDTA. • Resuspended cells in growth media without selection antibiotics. • Measured cell density and diluted to 2.4×10^5 cells/ml in media containing 1 ug/ml Doxycycline Plate 25 ul/well into 384 well black/clear tissue culture-treated plates. • Incubated overnight at 37° C.
Replacement Buffer: Hank's Balanced Salt Solution, 20 mM HEPES along with 0.005% BSA and 2× Probenecid
Dye Loading Buffer: Cal-3 NW Calcium dye was prepared by dissolving the contents of one vial with […] Hank's Balanced Salt Solution containing 20 mM HEPES.
AP-18, stock 10 mM, prepare 3.5× compound dilution in a Compound Buffer (HBSS/20 mM HEPES/0.005% BSA)—final concentration 10 uM.
Preparation of Cinnamaldehyde (Agonist Addition): • FW=132.16 • Specific gravity=1.046 gm/cc • 1.32 gm/1.046 gm/cc=1.26 ml of stock • Add 1.74 ml DMSO=3.3 M stock • Working solution 4.5× (final 100 uM in Compound Buffer: HBSS/20 mM HEPES/0.005% BSA)
Compounds dilutions were prepared from 5 or 10 mM stock (100% DMSO): • Adjustments of volumes and concentrations were made at time of titration to reflect desired final assay concentrations. • Compounds were tested at either 20 μM three folds dilution 11 steps out or 30 μM two folds dilution 11 steps out. • 3 μl of diluted compound were transferred into Weidmann 384-well plate in duplicates side-by-side. • Compound plates were resuspended with 100 ul of HBSS/20 mM HEPES/0.005% BSA buffer (Compound Buffer): • column 1A-H: buffer/DMSO (bk) • column 2A-H: AP-18 (control antagonist for CHOK1 TRPA1 cells) • column 1I-P: ATP (control for CHOK1 teton cells) • column 2I-P: 2APB (control antagonist for CHOK1/TRPM8 cells).
Growth media was removed from the cell plates (20 ul) and 20 μl of the Replacement Buffer was added followed by addition of 25 μl of diluted dye. All three steps were performed using a Plate Washer BioTek 407. The plates were then incubated for 30′ at RT.
After incubation, both the cell and compound plates were brought to the FLIPR and 20 μl of the diluted compounds/antagonist/bk were transferred to the cell plates by the FLIPR. Plates were then incubated for 30′ at room temperature. After 30′ incubation, plates were returned to the FLIPR and 20 μl of 4.5× Cinnamaldehyde was added to the cell plates. During the compound addition as well as agonist addition, fluorescence readings were taken simultaneously from all 384 wells of the cell plate every 1.5 seconds. Five readings were taken to establish a stable baseline, then 20 μl of sample was rapidly (30 ul/sec) and simultaneously added to each well of the cell plate. The fluorescence was continuously monitored before, during and after sample/agonist addition for a total elapsed time of 100 seconds (compound addition) and 120 seconds (agonist addition). Responses (increase in peak fluorescence) in each well following agonist addition was determined. The initial fluorescence reading from each well, prior to ligand stimulation, was used a zero baseline value for the data from that well.

Structures can show the parent of a compound that is named as a salt.

In US9353096B2, “Substituted phenylcarbamate compounds” (Hoffmann-La Roche Inc., priority 2012, dated 2016) one finds IC50 data, which are given here for 23 compounds.

Usually IC50 stands for the concentration at which inhibition is half-maximal.

Sequence of hTRPA1 (O75762 whole entry): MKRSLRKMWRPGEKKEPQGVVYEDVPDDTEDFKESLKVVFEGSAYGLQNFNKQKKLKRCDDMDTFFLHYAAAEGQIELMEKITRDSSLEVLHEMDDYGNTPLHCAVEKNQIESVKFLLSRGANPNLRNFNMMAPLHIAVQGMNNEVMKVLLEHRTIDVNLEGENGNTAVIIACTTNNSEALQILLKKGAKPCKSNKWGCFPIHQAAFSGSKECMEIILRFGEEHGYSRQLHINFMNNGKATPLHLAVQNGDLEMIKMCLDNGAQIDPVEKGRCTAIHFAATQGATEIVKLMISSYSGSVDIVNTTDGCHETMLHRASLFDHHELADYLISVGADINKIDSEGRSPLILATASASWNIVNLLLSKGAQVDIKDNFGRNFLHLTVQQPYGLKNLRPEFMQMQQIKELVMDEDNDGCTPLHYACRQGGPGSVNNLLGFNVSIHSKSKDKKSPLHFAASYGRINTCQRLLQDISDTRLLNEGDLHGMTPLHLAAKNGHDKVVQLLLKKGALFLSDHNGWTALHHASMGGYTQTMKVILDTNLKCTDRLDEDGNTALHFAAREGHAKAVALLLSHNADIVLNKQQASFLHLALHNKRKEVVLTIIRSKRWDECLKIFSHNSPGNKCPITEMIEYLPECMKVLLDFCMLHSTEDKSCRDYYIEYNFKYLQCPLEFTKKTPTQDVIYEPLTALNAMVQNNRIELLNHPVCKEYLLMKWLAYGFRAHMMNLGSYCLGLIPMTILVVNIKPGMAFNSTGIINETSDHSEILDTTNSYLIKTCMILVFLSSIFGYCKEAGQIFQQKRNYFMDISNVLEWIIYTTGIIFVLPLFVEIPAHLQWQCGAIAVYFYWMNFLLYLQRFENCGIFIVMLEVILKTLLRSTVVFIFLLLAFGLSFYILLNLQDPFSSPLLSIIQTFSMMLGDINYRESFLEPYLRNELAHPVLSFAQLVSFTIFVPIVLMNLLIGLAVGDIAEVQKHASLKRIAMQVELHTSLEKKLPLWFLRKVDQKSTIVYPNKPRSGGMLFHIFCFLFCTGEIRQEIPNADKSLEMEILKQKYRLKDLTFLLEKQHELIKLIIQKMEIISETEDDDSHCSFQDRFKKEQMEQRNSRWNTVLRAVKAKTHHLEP

`O=C(Nc1ccc(Cl)cc1)O[C@@H](CN1CCOC(c2cc(Cl)cc(Cl)c2)C1)C(F)(F)F` (stereo partly drawn) [Example 44, (4-Chlorophenyl)-carbamic acid (S)-2,2,2-trifluoro-1-[2-(3,5-dichlorophenyl)-morpholin-4-ylmethyl]-ethyl ester hydrochloride]: the IC50 stood at 10.3 nM.

Regarding `O=C(Nc1ccc(Cl)cc1)O[C@@H](CN1CCS(=O)(=O)[C@@H](c2cccc(C(F)(F)F)c2)C1)C(F)(F)F` (single isomer, unassigned) [Example 19], the IC50 turned out to be 191 nM. The figure for `O=C(Nc1ccc(Cl)c(F)c1)O[C@@H](CN1CCO[C@H](c2ccc(C(F)(F)F)nc2)C1)C(F)(F)F` [Example 22, (4-Chloro-3-fluorophenyl)-carbamic acid (S)-2,2,2-trifluoro-1-[(R)-2-(6-trifluoromethyl-pyridin-3-yl)-morpholin-4-ylmethyl]-ethyl ester] is 64.3 nM.

On to `O=C(Nc1ccc(Cl)cc1)OC(CN1CCOCC1)C(F)(F)F` (centres unmarked) [Example 41, (4-Chlorophenyl)-carbamic acid 2,2,2-trifluoro-1-morpholin-4-ylmethyl-ethyl ester], for which the half-maximal inhibitory concentration (IC50) was found to be 2140 nM.

On to `O=C(Nc1ccc(Cl)c(F)c1)O[C@@H](CN1CCS(=O)(=O)[C@H](c2cccc(C(F)(F)F)c2)C1)C(F)(F)F` [Example 20, (4-Chloro-3-fluorophenyl)-carbamic acid (S)-1-[(R)-1,1-dioxo-2-(3-trifluoromethylphenyl)-1λ^6-thiomorpholin-4-ylmethyl]-2,2,2-trifluoroethyl ester], for which the IC50 turned out to be 74.3 nM. For `COc1cccc(C2CN(C[C@H](OC(=O)Nc3ccc(Cl)cc3)C(F)(F)F)CCS2(=O)=O)c1` (stereo partly drawn) [Example 17, (4-Chlorophenyl)-carbamic acid (S)-2,2,2-trifluoro-1-[2-(3-methoxyphenyl)-1,1-dioxo-1λ^6-thiomorpholin-4-ylmethyl]-ethyl ester] the value was 390 nM. On to `COc1cccc([C@@H]2CN(C[C@H](OC(=O)Nc3ccc(Cl)cc3)C(F)(F)F)CCS2(=O)=O)c1` [Example 16, (4-Chlorophenyl)-carbamic acid (S)-2,2,2-trifluoro-1-[(R)-2-(3-methoxyphenyl)-1,1-dioxo-1λ^6-thiomorpholin-4-ylmethyl]ethyl ester], for which the IC50 is 152 nM.

With `Cc1ccc(NC(=O)O[C@@H](CN2CCOC(c3ccc(F)c(F)c3)C2)C(F)(F)F)cc1` (stereo partly drawn) [Example 37, p-Tolylcarbamic acid (S)-1-[2-(3,4-difluorophenyl)-morpholin-4-ylmethyl]-2,2,2-trifluoroethyl ester hydrochloride], the IC50 turned out to be 458 nM.

Consider `CN1CCN(C[C@H](OC(=O)Nc2ccc(Cl)cc2)C(F)(F)F)CC1c1ccccc1` (stereo partly drawn) [Example 27, (4-Chlorophenyl)-carbamic acid (S)-2,2,2-trifluoro-1-(4-methyl-3-phenylpiperazin-1-ylmethyl)-ethyl ester hydrochloride], for which the IC50 was 2620 nM. For `CC(C)c1nccc([C@@H]2CN(C[C@H](OC(=O)Nc3ccc(Cl)c(F)c3)C(F)(F)F)CCO2)n1` [Example 25, (4-Chloro-3-fluorophenyl)-carbamic acid (S)-2,2,2-trifluoro-1-[(S)-2-(2-isopropylpyrimidin-4-yl)-morpholin-4-ylmethyl]-ethyl ester hydrochloride] the value was 103 nM; for `COc1cccc([C@H]2CN(C[C@H](OC(=O)Nc3ccc(Cl)cc3)C(F)(F)F)CCO2)c1` (single isomer, unassigned) [Example 15], 803 nM. For `O=C(Nc1ccc(Cl)c(F)c1)O[C@@H](CN1CCS(=O)(=O)[C@@H](c2cccc(C(F)(F)F)c2)C1)C(F)(F)F` (single isomer, unassigned) [Example 21] the value was 1100 nM; for `O=C(Nc1ccc(Cl)cc1)O[C@@H](CN1CCO[C@@H](c2cccc(C(F)(F)F)c2)C1)C(F)(F)F` [Example 12, (4-Chlorophenyl)-carbamic acid (S)-2,2,2-trifluoro-1-[(S)-2-(3-trifluoromethylphenyl)-morpholin-4-ylmethyl]-ethyl ester hydrochloride], 108 nM; for `O=C(Nc1ccc(Cl)c(F)c1)O[C@@H](CN1CCO[C@H](c2cccc(Cl)c2)C1)C(F)(F)F` [Example 6, (4-Chloro-3-fluorophenyl)-carbamic acid (S)-1-[(R)-2-(3-chlorophenyl)-morpholin-4-ylmethyl]-2,2,2-trifluoroethyl ester hydrochloride], 50.5 nM. In the case of `O=C(Nc1ccc(Cl)cc1)O[C@@H](CN1CCO[C@H](c2cccc(C(F)(F)F)c2)C1)C(F)(F)F` [Example 11, (4-Chlorophenyl)-carbamic acid (S)-2,2,2-trifluoro-1-[(R)-2-(3-trifluoromethylphenyl)-morpholin-4-ylmethyl]-ethyl ester hydrochloride], the IC50 turned out to be 5.58 nM.

As to `COc1ccc(C[C@@H]2CN(C[C@H](OC(=O)Nc3ccc(Cl)cc3)C(F)(F)F)CCO2)cn1` [Example 50, (4-Chloro-phenyl)-carbamic acid (S)-2,2,2-trifluoro-1-[(R)-2-(6-methoxy-pyridin-3-ylmethyl)-morpholin-4-ylmethyl]ethyl ester], the IC50 worked out at 244 nM. The figure for `O=C(C[C@@H](CN1CCO[C@@H](c2cccc(C(F)(F)F)c2)C1)C(F)(F)F)Nc1ccc(Cl)c(F)c1` [Example 40, (S)—N-(4-chloro-3-fluorophenyl)-4,4,4-trifluoro-3-[(S)-2-(3-trifluoromethylphenyl)-morpholin-4-ylmethyl]-butyramide] is 3060 nM. Take `O=C(Nc1ccc(Cl)c(F)c1)O[C@@H](CN1CCO[C@@H](c2cccc(Cl)c2)C1)C(F)(F)F` [Example 8, (4-Chloro-3-fluorophenyl)-carbamic acid (S)-1-[(S)-2-(3-chlorophenyl)-morpholin-4-ylmethyl]-2,2,2-trifluoroethyl ester hydrochloride]: the IC50 turned out to be 597 nM. The figure for `Cc1ccc(NC(=O)O[C@@H](CN2CCOC(c3ccc(C(F)(F)F)cc3)C2)C(F)(F)F)cc1Cl` (stereo partly drawn) [Example 33, (3-Chloro-4-methylphenyl)-carbamic acid (S)-2,2,2-trifluoro-1-[2-(4-trifluoromethylphenyl)-morpholin-4-ylmethyl]-ethyl ester hydrochloride] is 1630 nM; for `O=C(Nc1ccc(Cl)cc1)O[C@@H](CN1CCO[C@H](Cc2cccs2)C1)C(F)(F)F` [Example 49, (4-Chlorophenyl)-carbamic acid (S)-2,2,2-trifluoro-1-((R)-2-thiophen-2-ylmethyl-morpholin-4-ylmethyl)-ethyl ester hydrochloride] it is 115 nM.

For `CC(C)c1nccc([C@H]2CN(C[C@H](OC(=O)Nc3ccc(Cl)c(F)c3)C(F)(F)F)CCO2)n1` (single isomer, unassigned) [Example 26, hydrochloride], the IC50 was determined as 846 nM. For `O=C(Nc1ccc(Cl)cc1)O[C@@H](CN1CCO[C@H](c2ccc(C(F)(F)F)cc2)C1)C(F)(F)F` [Example 29, (4-Chlorophenyl)-carbamic acid (S)-2,2,2-trifluoro-1-[(R)-2-(4-trifluoromethylphenyl)-morpholin-4-ylmethyl]-ethyl ester hydrochloride] the value was 7.64 nM. For `O=C(Nc1ccc(Cl)cc1)O[C@@H](CN1CCO[C@H](c2cc(Cl)cc(Cl)c2)C1)C(F)(F)F` [Example 45, (4-Chlorophenyl)carbamic acid (S)-1-[(R)-2-(3,5-dichlorophenyl)-morpholin-4-ylmethyl]-2,2,2-trifluoroethyl ester hydrochloride] the value was 8.09 nM.
